Source: US20240398812A1 (Caraway Therapeutics, Inc., priority 2021, published 2024)

What was measured:
TRPML3 = molecular target: T1, TRPML3 (Homo sapiens, UniProt Q8TDD5); assay: Fluorescent TRPML3 assay (as for TRPML1); assay type: cell-based
T1 construct: expressed in transfected cells
T1 sequence (Q8TDD5 1-553): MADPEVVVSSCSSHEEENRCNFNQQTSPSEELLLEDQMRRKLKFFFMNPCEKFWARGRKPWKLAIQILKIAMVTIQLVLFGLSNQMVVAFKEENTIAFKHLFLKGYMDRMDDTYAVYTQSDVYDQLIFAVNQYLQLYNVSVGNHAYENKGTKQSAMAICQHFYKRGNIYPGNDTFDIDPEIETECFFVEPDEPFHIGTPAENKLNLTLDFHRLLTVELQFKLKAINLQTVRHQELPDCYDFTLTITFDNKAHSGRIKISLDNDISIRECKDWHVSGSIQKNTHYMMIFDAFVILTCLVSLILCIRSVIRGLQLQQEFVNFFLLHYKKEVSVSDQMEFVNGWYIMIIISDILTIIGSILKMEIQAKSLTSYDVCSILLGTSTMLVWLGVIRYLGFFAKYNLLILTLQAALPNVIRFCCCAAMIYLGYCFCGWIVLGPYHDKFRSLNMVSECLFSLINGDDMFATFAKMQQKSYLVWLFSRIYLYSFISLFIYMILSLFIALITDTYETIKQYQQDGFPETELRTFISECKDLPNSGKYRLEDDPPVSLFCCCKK
Protocol: (§1) HEK-293 Trex cells were stably transfected with a construct consisting of the human coding sequence for TRPML1 cloned into the tet-inducible plasmid pCDNA5 T/O. Mutations were introduced into the TRPML1 sequence to facilitate expression on the cell surface (Silvia Vergarajauregui, Rosa Puertollano Traffic. 2006 March; 7 (3): 337-353). Briefly, the cells are cultured in 150 mm round tissue culture dishes containing 20 mL of media. The day before the assay the cells are rinsed with DPBS —Ca—Mg and then treated briefly with Trypsin-EDTA. The Trypsin-EDTA is diluted with growth media, and cells are counted. 38×10^6 cells are re-plated into 150 mm round tissue culture dishes in media containing 0.5 ug/mL doxycycline to induce expression of hTRPML1.
(§2) The day of the experiment cells are lifted from the plates as above and collected by centrifugation. The cells are then suspended in dye loading buffer consisting of Ringer's solution supplemented with 0.1% Pluronic Acid and 1 micromolar Fluo4-AM dye. Cells are loaded for ˜60 minutes in the dark with occasional mixing. The cells are collected by centrifugation, the loading media aspirated, and the cells resuspended in 25 mL Ringer's solution and incubated ˜60 minutes in the dark. The cells are again collected by centrifugation, rinsed in Ringer's Solution and resuspended to 0.2×10^6 cells/mL in modified Ringer's solution containing 10 mM calcium.
(§3) Compounds are dissolved to a concentration of 10 millimolar with DMSO. Compound plates are created by dispensing compounds into 384 well black wall clear bottom plates (Greiner 781091). Positive and negative controls are included on each plate. Typically, different amounts of each compound are tested ranging from 100 nanoMoles (20 micromolar final concentration) decreasing in half-log steps to 31 picoMoles (6 nanomolar final concentration). Each concentration is typically tested in triplicate.
(§4) 50 microliters of dye-loaded cells are dispensed into each well of the compound assay plate created above. The fluorescence in each well is then determined with an excitation wavelength of 480 nm and an emission wavelength of 540 nm using either a Molecular Devices SpectraMax multimode plate reader or a Hamamatsu FDSS/uCell plate imager.
(§5) The resulting fluorescence for each well is exported as an ascii file and loaded into our LIMS for analysis. The percent activity of each compound at each concentration is determined by comparison to the positive and negative control wells included in each plate.
Assays for TRPML2 and TRPML3 were performed as above for TRPML1, by substituting the appropriate TRPML2 or TRPML3 subtype for the TRPML1.
(§6) EC50 values were calculated using a non-linear regression of Prism. In the table, “A” indicates an EC50 of less than 100 nM, “B” indicates an EC50 range from 100 nM to 500 nM; “C” indicates an EC50 range from 500 nM to 2 μM; and “D” indicates an EC50 greater than 2 μM.

human TRPML1 = human TRPML1 (Homo sapiens, UniProt Q9GZU1); assay: Fluorescent TRPML1 assay (Fluo4-AM calcium fluorescence, HEK-293 Trex cells); assay type: cell-based
Chain of human TRPML1 (Q9GZU1 whole entry L15A/L16A/L577A/L578A, form open): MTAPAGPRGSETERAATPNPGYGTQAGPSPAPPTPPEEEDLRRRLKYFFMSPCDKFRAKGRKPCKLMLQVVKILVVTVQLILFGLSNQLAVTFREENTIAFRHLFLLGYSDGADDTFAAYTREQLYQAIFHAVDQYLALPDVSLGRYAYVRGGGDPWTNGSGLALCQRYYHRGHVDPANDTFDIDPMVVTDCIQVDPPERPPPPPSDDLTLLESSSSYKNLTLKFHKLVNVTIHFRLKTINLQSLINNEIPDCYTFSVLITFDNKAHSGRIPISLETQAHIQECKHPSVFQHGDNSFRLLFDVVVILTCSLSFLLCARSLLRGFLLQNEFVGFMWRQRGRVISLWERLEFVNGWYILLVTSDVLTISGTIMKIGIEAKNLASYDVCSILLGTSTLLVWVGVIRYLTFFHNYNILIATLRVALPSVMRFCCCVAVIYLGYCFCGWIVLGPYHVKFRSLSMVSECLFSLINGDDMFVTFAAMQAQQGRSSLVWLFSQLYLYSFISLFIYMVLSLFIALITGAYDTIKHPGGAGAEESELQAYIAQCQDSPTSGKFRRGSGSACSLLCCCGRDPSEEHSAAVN
Protocol: as §1, §2, §3, §4, §5, §6

Row | EC50 (TRPML3; Table 3, compounds 101-177) | EC50 (human TRPML1; Table 3, compounds 101-177) | EC50 (TRPML3; Table 3, compounds 201-283) | EC50 (human TRPML1; Table 3, compounds 201-283) | Structure (SMILES)
1 | < 100 nM | 100 to 500 nM |  |  | CC(C)C(=O)N1CCN(c2ncnc3c2c(-c2ccccc2F)cn3-c2cc(C#N)ccn2)[C@H](C)C1 [Compound 138, (R)-2-(5-(2-fluorophenyl)-4-(4-isobutyryl-2-methylpiperazin-1-yl)-7H-pyrrolo[2,3-d]pyrimidin-7-yl)isonicotinonitrile]
2 |  |  | < 100 nM | < 100 nM | CCCC(=O)N1CCN(c2ncnc3c2c(N2CCC2)cn3-c2cc(C#N)ccn2)C[C@H]1C [Compound 274, (R)-2-(5-(azetidin-1-yl)-4-(4-butyryl-3-methylpiperazin-1-yl)-7H-pyrrolo[2,3-d]pyrimidin-7-yl)isonicotinonitrile]
3 | < 100 nM | 100 to 500 nM |  |  | CC(C)C(=O)N1CCN(c2ncnc3c2c(-c2ccccc2F)cn3-c2cc(C#N)ccn2)CC12CC2 [Compound 145, 2-(5-(2-fluorophenyl)-4-(4-isobutyryl-4,7-diazaspiro[2.5]octan-7-yl)-7H-pyrrolo[2,3-d]pyrimidin-7-yl)isonicotinonitrile]
4 | 100 to 500 nM | < 100 nM |  |  | C[C@H]1CN(C(=O)CCC(F)(F)F)CCN1c1ncnc2c1c(-c1ccccc1F)cn2-c1cc(C#N)ccn1 [Compound 135, (S)-2-(5-(2-fluorophenyl)-4-(2-methyl-4-(4,4,4-trifluorobutanoyl)piperazin-1-yl)-7H-pyrrolo[2,3-d]pyrimidin-7-yl)isonicotinonitrile]
5 | > 2000 nM | 500 to 2000 nM |  |  | Cc1nccnc1-c1cn(-c2cc(C#N)ccn2)c2ncnc(N3C[C@@H](C)N(C(=O)C(C)C)C[C@@H]3C)c12 [Compound 172, 2-(4-((2S,5R)-4-isobutyryl-2,5-dimethylpiperazin-1-yl)-5-(3-methylpyrazin-2-yl)-7H-pyrrolo[2,3-d]pyrimidin-7-yl)isonicotinonitrile]
6 | 100 to 500 nM | 100 to 500 nM |  |  | N#Cc1ccnc(-n2cc(-c3ccccc3F)c3c(N4CCN(C(=O)C5CC5)CC4)ncnc32)c1 [Compound 110, 2-(4-(4-(cyclopropanecarbonyl)piperazin-1-yl)-5-(2-fluorophenyl)-7H-pyrrolo[2,3-d]pyrimidin-7-yl)isonicotinonitrile]
7 |  |  | < 100 nM | < 100 nM | COC(C)(C)C(=O)N1CCN(c2ncnc3c2c(C2CC2)cn3-c2cc(C#N)ccn2)[C@@H](C)C1 [Compound 241, (S)-2-(5-cyclopropyl-4-(4-(2-methoxy-2-methylpropanoyl)-2-methylpiperazin-1-yl)-7H-pyrrolo[2,3-d]pyrimidin-7-yl)isonicotinonitrile]
8 | 100 to 500 nM | < 100 nM |  |  | C[C@H]1CN(C(=O)C(C)(C)O)CCN1c1ncnc2c1c(-c1ccccc1F)cn2-c1cc(C#N)ccn1 [Compound 159, (S)-2-(5-(2-fluorophenyl)-4-(4-(2-hydroxy-2-methylpropanoyl)-2-methylpiperazin-1-yl)-7H-pyrrolo[2,3-d]pyrimidin-7-yl)isonicotinonitrile]
9 |  |  | 100 to 500 nM | < 100 nM | Cc1cn(-c2cc(C(F)(F)F)ccn2)c2ncnc(N3C[C@@H](C)N(C(=O)C(C)(C)C)C[C@@H]3C)c12 [Compound 245, 1-((2R,5S)-2,5-dimethyl-4-(5-methyl-7-(4-(trifluoromethyl)pyridin-2-yl)-7H-pyrrolo[2,3-d]pyrimidin-4-yl)piperazin-1-yl)-2,2-dimethylpropan-1-one]
10 |  |  | 100 to 500 nM | < 100 nM | C[C@@H]1CN(c2ncnc3c2c(C(F)(F)F)cn3-c2cccc(C#N)c2)[C@@H](C)CN1C(=O)C(C)(C)C [Compound 222, 3-(4-((2S,5R)-2,5-dimethyl-4-pivaloylpiperazin-1-yl)-5-(trifluoromethyl)-7H-pyrrolo[2,3-d]pyrimidin-7-yl)benzonitrile]
11 | 500 to 2000 nM | 100 to 500 nM |  |  | CC(C)C(=O)N1CCN(c2ncnc3c2c(-c2ccccc2F)cn3-c2cc(C#N)n(C)c2)[C@@H](C)C1 [Compound 157, (S)-4-(5-(2-fluorophenyl)-4-(4-isobutyryl-2-methylpiperazin-1-yl)-7H-pyrrolo[2,3-d]pyrimidin-7-yl)-1-methyl-1H-pyrrole-2-carbonitrile]
12 | 500 to 2000 nM | > 2000 nM |  |  | CC(C)C(=O)N1CC2(CCN(c3ncnc4c3c(-c3ccccc3F)cn4-c3cc(C#N)ccn3)C2)C1 [Compound 101, 2-(5-(2-fluorophenyl)-4-(2-isobutyryl-2,6-diazaspiro[3.4]octan-6-yl)-7H-pyrrolo[2,3-d]pyrimidin-7-yl)isonicotinonitrile]
13 | 100 to 500 nM | 100 to 500 nM |  |  | CC(C)C(=O)N1CCN(c2ncnc3c2c(-c2ccccc2F)cn3-c2cc(C#N)cnn2)[C@@H](C)C1 [Compound 171, (S)-6-(5-(2-fluorophenyl)-4-(4-isobutyryl-2-methylpiperazin-1-yl)-7H-pyrrolo[2,3-d]pyrimidin-7-yl)pyridazine-4-carbonitrile]
14 | 100 to 500 nM | 100 to 500 nM |  |  | C[C@@H]1CN(c2ncnc3c2c(-c2ccccc2)cn3-c2cc(C#N)ccn2)CCN1C(=O)C1CC1 [Compound 124, (R)-2-(4-(4-(cyclopropanecarbonyl)-3-methylpiperazin-1-yl)-5-phenyl-7H-pyrrolo[2,3-d]pyrimidin-7-yl)isonicotinonitrile]
15 | 100 to 500 nM | < 100 nM |  |  | C[C@@H]1CN(c2ncnc3c2c(C2CC2)cn3-c2cc(C#N)ccn2)CCN1C(=O)C1(F)CC1 [Compound 129, (R)-2-(5-cyclopropyl-4-(4-(1-fluorocyclopropane-1-carbonyl)-3-methylpiperazin-1-yl)-7H-pyrrolo[2,3-d]pyrimidin-7-yl)isonicotinonitrile]
16 |  |  | > 2000 nM | < 100 nM | C[C@H]1CN(C(=O)C(C)(C)C)CCN1c1ncnc2c1c(N1CCC1)cn2-c1cccc(F)c1 [Compound 216, (S)-1-(4-(5-(azetidin-1-yl)-7-(3-fluorophenyl)-7H-pyrrolo[2,3-d]pyrimidin-4-yl)-3-methylpiperazin-1-yl)-2,2-dimethylpropan-1-one]
17 |  |  | 100 to 500 nM | < 100 nM | CC(C)C(=O)N1C[C@H](C)N(c2ncnc3c2c(N2CCC2)cn3-c2cc(C#N)ccn2)C[C@H]1C [Compound 275, 2-(5-(azetidin-1-yl)-4-((2S,5R)-4-isobutyryl-2,5-dimethylpiperazin-1-yl)-7H-pyrrolo[2,3-d]pyrimidin-7-yl)isonicotinonitrile]
18 | > 2000 nM | 100 to 500 nM |  |  | C[C@H]1CN(C(=O)C(C)(C)O)CCN1c1ncnc2c1c(C1CC1)cn2-c1cc(C#N)ccn1 [Compound 160, (S)-2-(5-cyclopropyl-4-(4-(2-hydroxy-2-methylpropanoyl)-2-methylpiperazin-1-yl)-7H-pyrrolo[2,3-d]pyrimidin-7-yl)isonicotinonitrile]
19 | 100 to 500 nM | 100 to 500 nM |  |  | CCN(CC)c1cn(-c2cc(C#N)ccn2)c2ncnc(N3CCN(C(=O)C(C)C)C[C@@H]3C)c12 [Compound 151, (S)-2-(5-(diethylamino)-4-(4-isobutyryl-2-methylpiperazin-1-yl)-7H-pyrrolo[2,3-d]pyrimidin-7-yl)isonicotinonitrile]
20 | > 2000 nM | 500 to 2000 nM |  |  | C[C@H]1CN(C(=O)C2(C)CC2)CCN1c1ncnc2c1c(-c1ccccn1)cn2-c1cc(C#N)ccn1 [Compound 127, (S)-2-(4-(2-methyl-4-(1-methylcyclopropane-1-carbonyl)piperazin-1-yl)-5-(pyridin-2-yl)-7H-pyrrolo[2,3-d]pyrimidin-7-yl)isonicotinonitrile]
